Read-outs that look alike come from different tables or passages of the source. Values belong to the compound of their own block, whether it stands above or below them.
How the values were obtained:
[1] = Binding constants of Motor1 towards guests; details: host Motor1
[2] = Binding affinities of compounds towards Motor2
[3] = rat, in vivo
[4] = Self-association study by 1H NMR at varied concentration; format: physicochemical; details: 20 mM NaD2PO4, pD=7.4, 1H NMR
HepG2 = format: cell-based; details: untreated population 60%
From the text: FIG. 28. Toxicology of Motor1 using the human liver cell line HepG2. Results from (A) MTS assay (B) AK assay. Untreated population (UT), Distilled water (D), Erythromycin (E), Erythromycin Estolate (EE).
(§1) Toxicity Studies: To measure the cellular toxicity of Motor1 we use two complementary assays: an MTS (CellTiter 96 AQueous Kit®) assay that measures cellular metabolism, and a cytotoxicity assay (Toxilight®BioAssay Kit) that measures cell death via the release of the cytosolic enzyme adenylate kinase into the supernatant. Both assays were used with two different cell lines commonly used in drug toxicity studies, HEK293 and HepG2 cell lines. HEK293, a human kidney cell line, is used to assess the effect of the drug candidate on the renal system and HepG2, a human hepatocyte cell line, is used to assess the response of liver cells where drugs are metabolized. Both assays included the use of an untreated population, and cells treated with distilled water, erythromycin and erythromycin estolate. Erythromycin is a commercially available drug widely used to treat bacterial infections. […] […].
(§2) Both cell lines were incubated with the containers (0.01, 0.1, 1 and 10 mM) for 2 days prior to analysis with the two assays. Relative absorbance and luminescence data was normalized to percent cell viability (MTS) and cell death (AK). For the MTS assay, the untreated cells were set at 100% cell viability while the cell population treated with distilled water was set at a 100% cell death for the AK assay.

HEK293 = assay: AK (adenylate kinase release) cytotoxicity assay, HEK293; format: cell-based
From the text: FIG. 27. Toxicology of Motor1 using the human kidney cell line HEK293. Results from (A) MTS assay (B) AK assay. Untreated population (UT), Distilled water (D), Erythromycin (E), Erythromycin Estolate (EE).
as §1, §2

[5] = Binding of Motor1 and Motor2 with Ketamine (Rhodamine 6G indicator competition, UV-VIS); details: Rhodamine 6G displacement titration, 20 mM phosphate buffer pH 7.4
[6] = rat, in vivo; remark: listed apart in the source
[7] = Binding of Motor1 and Motor2 with Etomidate
[8] = Tolerance in mice after tail vein injection (body weight); format: in vivo; details: tail vein injection at day 0, 4 and 8, weight monitored
Method: FIG. 30. […] Indicated amounts of Motor1 were injected into the tail vein of outbred Swiss Webster mice at day 0, 4 and 8. The weight of each mouse was monitored over time and there were 5 mice per experimental group.
Indicated amounts of Motor1 were injected into the tail vein of outbred Swiss Webster mice at day 0, 4 and 8. The weight of each mouse was monitored over time and there were 5 mice per experimental group.

[9] = system: rocuronium-induced neuromuscular block; assay: Reversal of rocuronium-induced neuromuscular block in anesthetized rats; format: in vivo; details: for Time until normal breathing recovered: rocuronium 3.5 mg/kg, placebo 720 s; for Time until quadriceps femoris twitch height normalized: rocuronium, placebo 960 s
Method: (§3) Spontaneous breathing was maintained during surgery and if possible according to normal protocol. Rats lay in the supine position with the head supported in a neutral position in the midline on a soft piece of tissue. The left femoral vein and artery were cannulated for drug infusion and blood sampling. […] Corning, N.Y., USA) and continuous measurement of blood pressure (PowerLab; ADInstruments, Colorado Springs, Mo.) and heart rate were performed. If mechanical ventilation was necessary animals were ventilated through a tracheostomy (SAR-830; CWE, Ardmore, Pa., USA). Rectal temperature was kept at 37.0±0.1° C. using a thermostatic heating pad (FHC, Bowdoinham, Me.). Level of anesthesia was maintained throughout the experiment to eliminate cardiovascular response to tail pinch. In all treatment groups, systemic physiological parameters were kept well within normal range. The right leg was shaved and the femoral nerve was stimulated supramaximally with subcutaneous needle electrodes, and the evoked response of the quadriceps femoris muscle was measured by accelerometry, with the TOF-Watch SX Monitor (Organon Ireland Ltd, a part of Schering-Plough Corporation, Dublin, Ireland), as described previously (Fassbender et al, Anesthesiology 2007). The transducer was fixed to the skin ventromedially at the proximal end of the thigh, next to the tibial tuberosity (insertion point of the patellar ligament). […] Endpoints included time to recovery of spontaneous breathing, twitch height as well as TOF-ratio.

[10] = system: cisatracurium-induced neuromuscular block; assay: Reversal of cisatracurium-induced neuromuscular block in anesthetized rats; format: in vivo; details: for Time until normal breathing recovered / Time until quadriceps femoris twitch height normalized: cisatracurium; for Time until normal breathing recovered: placebo 750 (17) s, means (SD); for Time until quadriceps femoris twitch height normalized: placebo 1002 (122) s
Method: as §3

ketamine anesthesia = assay: Reversal of ketamine anesthesia in rats; format: in vivo
[11] = ketamine anesthesia, Motor2 200 mg

Compound: CC(=O)O[C@H]1C[C@@H]2CC[C@@H]3[C@H](CC[C@@]4(C)[C@H]3C[C@H]([N+]3(C)CCCCC3)[C@@H]4OC(C)=O)[C@@]2(C)C[C@@H]1N1CCCCC1 [vecuronium]
Ka, binding constant of Motor1 towards guest [1]: 5.8 ± 0.9 × 10^6
Ka (M^−1) with Motor2 [2]: 1.6 ± 0.2 × 10^9 M^−1

Compound: Cyclohexanediamine
Ka (M^−1) with Motor2 ([2]; host Motor2): 2.1 ± 0.2 × 10^8 M^−1

Compound: CC12N3Cc4c(OCCCS(=O)(=O)[O-])ccc(OCCCS(=O)(=O)[O-])c4CN1C(=O)N1CN4C(=O)N5CN6C(=O)N7CN8C(=O)N9Cc%10c(OCCCS(=O)(=O)[O-])ccc(OCCCS(=O)(=O)[O-])c%10CN%10C(=O)N(CN%11C(=O)N(CN%12C(=O)N(CN(C3=O)C12C)C4C%125)C6C%117)C8(C)C%109C.[Na+].[Na+].[Na+].[Na+] (centres unmarked) [Motor1]
Motor1 concentration in the urine relative to plasma [3]: equals concentration in the plasma
Ka, two-fold self-association model [4]: 47 M⁻¹
% cell death (AK) (HepG2; HepG2, 0.01 mM): 55%
% cell death (AK) (HepG2; HepG2, 0.1 mM): 56%
% cell death (AK) (HepG2; HepG2, 1 mM): 50%
% cell death (AK) (HepG2; HepG2, 10 mM): 17%
Percent cell death (AK) (HEK293; HEK293, all concentrations (0.01, 0.1, 1 and 10 mM)): below 5%
Binding constant (Ka) with Ketamine [5]: 39020 M⁻¹
Percent hemolysis (human erythrocytes): ≤ 20%
Toxicity to human erythrocytes (overall) (human erythrocytes): non-toxic
Arterial blood gas parameters pH, pCO2, and pO2 [6]: did not change
Heart rate and mean arterial blood pressure [6]: did not change
Side effects on arterial blood-gas analysis, EKG, arterial blood pressure, heart rate [6]: did not have any side effects
Binding constant with Etomidate [7]: 35318 M⁻¹
Tolerance in mice [8]: well tolerated
Mean recovery of spontaneous breathing ([9]; complete rocuronium-induced block, 90 mg as printed): 723 s
Mean recovery of spontaneous breathing ([9]; complete rocuronium-induced block, dose not given): 10 s
Reversal of rocuronium (in words) ([9]; rats, Motor1 10, 20, 30 mg): reversed rocuronium effectively, in a dose-dependent fashion
Time until normal breathing recovered ([9]; Motor1 10 mg): 120 ± 15 s
Time until normal breathing recovered ([9]; Motor1 20 mg): 15 ± 5 s
Time until normal breathing recovered ([9]; Motor1 30 mg): 8 ± 3 s
Time until quadriceps femoris twitch height normalized ([9]; Motor1 10 mg): 240 s
Time until quadriceps femoris twitch height normalized ([9]; Motor1 20 mg): 120 s
Time until quadriceps femoris twitch height normalized ([9]; Motor1 30 mg): 60 s
Time until normal breathing recovered ([10]; 30 mg Motor1): 28 (6) s
Time until normal breathing recovered ([10]; 60 mg Motor1): 11 (4) seconds
Time until quadriceps femoris twitch height normalized ([10]; first Motor1 dose listed (dose not given; 15 mg)): 266 (17) s
Time until quadriceps femoris twitch height normalized ([10]; second Motor1 dose listed (30 mg)): 130 (14) s
Time until quadriceps femoris twitch height normalized ([10]; third Motor1 dose listed (60 mg)): 68 (10) s

Compound: CC[N+](CC)(CC)CCOc1cccc(OCC[N+](CC)(CC)CC)c1OCC[N+](CC)(CC)CC [gallamine]
Ka, binding constant of Motor1 towards guest [1]: 6.2 ± 0.5 × 10^6
Ka (M^−1) with Motor2 [2]: 3.2 ± 0.4 × 10^8 M^−1

Ka (M^−1) with Motor2 ([2]; host Motor2): 1.0 ± 0.1 × 10^9 M^−1
Compound: COc1ccc(CC2c3cc(OC)c(OC)cc3CC[N+]2(C)CCC(=O)OCCCCCOC(=O)CC[N+]2(C)CCc3cc(OC)c(OC)cc3C2Cc2ccc(OC)c(OC)c2)cc1OC (centres unmarked) [Atracurium besilate]

Ka (M^−1) with Motor2 ([2]; host Motor2): 7.8 ± 0.8 × 10^8 M^−1
Compound: Nc1ccc2cc3ccc(N)cc3nc2c1 [Proflavin]

Compound: CC12N3Cc4c(c(OCCCS(=O)(=O)[O-])c5ccccc5c4OCCCS(=O)(=O)[O-])CN1C(=O)N1CN4C(=O)N5CN6C(=O)N7CN8C(=O)N9Cc%10c(c(OCCCS(=O)(=O)[O-])c%11ccccc%11c%10OCCCS(=O)(=O)[O-])CN%10C(=O)N(CN%11C(=O)N(CN%12C(=O)N(CN(C3=O)C12C)C4C%125)C6C%117)C8(C)C%109C.[Na+].[Na+].[Na+].[Na+] (centres unmarked) [Motor2]
Ka, two-fold self-association model [4]: 624 M⁻¹
Binding constant (Ka) with Ketamine [5]: 193490 M⁻¹
Side effects on arterial blood-gas analysis, EKG, arterial blood pressure, heart rate [6]: did not have any side effects
Reversal of ketamine anesthesia (in words) (ketamine anesthesia; ketamine 1500 μg/kg/min, Motor2 200 mg at 60 minutes): reverses ketamine anesthesia
Electroencephalogram (EEG) (ketamine anesthesia; [11]): wakefulness-like electrical activity
Respiratory rate and arterial blood pressure (ketamine anesthesia; [11]): increased
Time until the rat woke up after injection (ketamine anesthesia; steady-state ketamine infusion, Motor2 200 mg): ≤ 2 min
Binding constant with Etomidate [7]: 36812 M⁻¹
Mean time to recovery of the twitch height to 90% ([9]; complete rocuronium-induced block, 90 mg, placebo 19 minutes): 2.5 min
Speed of reversal of cisatracurium, twitch height recovery (comparison) ([10]; low-dose Motor2 versus high-dose Motor1): reverses the benzylisoquinolinum cisatracurium faster than high-dose 1

Ka, binding constant of Motor1 towards guest [1]: 1.4 ± 0.1 × 10^6
Compound: COc1ccc(CC2c3cc(OC)c(OC)cc3CC[N+]2(C)CCC(=O)OCCCCCOC(=O)CC[N+]2(C)CCc3cc(OC)c(OC)cc3C2Cc2ccc(OC)c(OC)c2)cc1OC (centres unmarked) [atracurium]

Compound: COc1cc2c3cc1Oc1cc(ccc1O)C[C@@H]1c4c(cc(OC)c(O)c4Oc4ccc(cc4)C[C@@H]3N(C)CC2)CC[N+]1(C)C [tubocurarine]
Ka, binding constant of Motor1 towards guest [1]: 4.7 ± 0.2 × 10^5

Compound: CCC(=O)O[C@H]1[C@H](O[C@@H]2[C@@H](C)[C@H](O[C@H]3C[C@@](C)(OC)[C@@H](O)[C@H](C)O3)[C@@H](C)C(=O)O[C@H](CC)[C@@](C)(O)[C@H](O)[C@@H](C)C(=O)[C@H](C)C[C@@]2(C)O)O[C@H](C)C[C@@H]1N(C)C [Erythromycin estolate]
Percent cell death (AK) (HEK293; human, 2 days, 1 mM): 49%

Compound: CC[C@H]1OC(=O)[C@H](C)[C@@H](O[C@H]2C[C@@](C)(OC)[C@@H](O)[C@H](C)O2)[C@H](C)[C@@H](O[C@@H]2O[C@H](C)C[C@H](N(C)C)[C@H]2O)[C@](C)(O)C[C@@H](C)C(=O)[C@H](C)[C@@H](O)[C@]1(C)O [Erythromycin]
Percent cell death (AK) (HEK293; HEK293, 1 mM): 25%

From patent US9469648B2, “Reversal of drug-induced neuromuscular block using novel molecular containers” (University of Maryland, College Park, priority 2010, dated 2016)
